Patent US20230052189A1, “TREATMENT OF PRIMARY BILIARY CHOLANGITIS WITH ELAFIBRANOR” (Genfit, priority 2020, published 2023)

Tests used:
[1] = test system: patients with PBC; conditions: Nevens et al. 2016; cited from earlier work
[2] = test system: subjects with PBC; experiment: Phase 2 double-blind placebo-controlled study: change from baseline in serum ALP; type: in vivo, human; conditions: for treatment effect estimate vs placebo, relative change in serum ALP (supportive analysis): ANCOVA with baseline ALP as covariate; for treatment effect estimate vs placebo, relative change in serum ALP (primary analysis): non-parametric randomization-based ANCOVA with baseline ALP as covariate, p<0.001; for mean relative change (%) from baseline to Endpoint in serum ALP: 12-week treatment, placebo 3.2%
Description: (§1) The study was a Phase 2, double-blind, randomized, parallel group, placebo-controlled study, designed to evaluate the efficacy and safety of elafibranor at doses of 80 mg or 120 mg daily vs placebo in an adult PBC population. This study projected to randomize approximately 45 subjects to 3 treatment groups in a 1:1:1 ratio (elafibranor 80 mg, elafibranor 120 mg, or placebo).
(§2) Subject participation was planned to be a maximum of 20 weeks. The study was comprised of 3 periods: a Screening Period, a Treatment Period, and a Follow-up Period. The Screening Period (Week −4 to Week −1) preceded the 12-week double-blind Treatment Period.
A decrease in ALP levels is recognized as a particularly relevant surrogate marker for the treatment of PBC. Consequently the primary endpoint of the study is to evaluate the efficacy of elafibranor 80 mg or 120 mg with respect to relative change from baseline in serum ALP levels compared to placebo.

[3] = test system: subjects with PBC; experiment: Phase 2 study: pruritus (itching) domain of PBC-40 quality of life questionnaire; type: in vivo, human; conditions: for median absolute change from baseline to Endpoint in the pruritus/itching domain of PBC-40: placebo 0.0; for median relative change from baseline to Endpoint in the pruritus/itching domain of PBC-40: placebo 0%; for mean absolute change from baseline to Endpoint in the pruritus (itching) domain of PBC-40: placebo 2.1
Description: as §1, §2

[4] = test system: subjects with PBC; experiment: Phase 2 study: change from baseline in pruritus visual analogue scale (VAS); type: in vivo, human; conditions: for median relative change from baseline to Endpoint in the pruritus VAS: placebo −7.1%
Description: as §1, §2
Considering that pruritus is a preeminent adverse event in subjects with PBC, assessment of pruritus was also considered. More specifically, the change from baseline in pruritus (through 5D-itch scale (measuring the degree, duration, direction [improvement or worsening], disability [effect on daily activities], and distribution of itching) and visual analogue scale for pruritus (VAS).
The 5D-itch scale is a reliable, multidimensional measure of itching that has been validated in patients with chronic pruritus to detect changes over time (Elman S, et al., The 5-D itch scale: a new measure of pruritus. Br J Dermatol. 2010; 162(3):587-593.). The VAS is a reliable and validated method of pruritus assessment (Reich A, et al., Visual analogue scale: evaluation of the instrument for the assessment of pruritus. Acta Derm Venereol.2012; 92(5):497-501).
Pruritus scoring values and absolute changes from baseline are provided for each domain of the 5D-itch scale (duration, degree, direction, disability, and distribution) and for the VAS by subject and by visit; baseline and Endpoint values are flagged in this listing; total scores at each visit are also summarized in this listing.

[5] = test system: subjects with PBC; experiment: Phase 2 study: tolerability and safety (TEAEs, pruritus worsening); type: in vivo, human; conditions: for percentage of subjects reporting TEAEs (Treatment-Emergent Adverse Events): placebo 80.0%
Description: as §1, §2
The tolerability and safety of once-per-day oral administration of elafibranor in 80-mg and 120-mg doses in subjects with PBC was assessed as follows: • Physical examination • Vital signs • Medical history • ECG • Hematological parameters • Liver markers • Other biochemical safety parameters

[6] = 80 mg and 120 mg treatment groups

CC[C@H]1[C@@H](O)[C@@H]2[C@H](CC[C@]3(C)[C@@H]([C@H](C)CCC(=O)O)CC[C@@H]23)[C@@]2(C)CC[C@@H](O)C[C@@H]12 [OCA, obeticholic acid]
pruritus adverse event [1]: severe pruritus has been reported

CSc1ccc(C(=O)C=Cc2cc(C)c(OC(C)(C)C(=O)O)c(C)c2)cc1 [elafibranor, 2-(2,6-dimethyl-4-{3-[4-(methylsulfanyl)phenyl]-3-oxopropen-1-yl}phenoxy)-2-methylpropanoic acid]
change from baseline in serum ALP vs placebo at Endpoint (significance) [2, 6]: statistically significantly different from placebo
mean ALP values from baseline through Week 12 (trend) ([2]; 80 mg and 120 mg treatment groups, 12 week study): declining mean ALP values
treatment effect estimate vs placebo, relative change in serum ALP (supportive analysis) ([2]; 80 mg, 95% CI [−63.3, −39.5]): −51.4%
treatment effect estimate vs placebo, relative change in serum ALP (primary analysis) ([2]; 80 mg, 95% CI [−62.5, −41.5]): −52.0%
treatment effect estimate vs placebo, relative change in serum ALP (supportive analysis) ([2]; 120 mg, 95% CI [−55.8, −31.9]): −43.9%
treatment effect estimate vs placebo, relative change in serum ALP (primary analysis) ([2]; 120 mg, 95% CI [−55.7, −32.1]): −43.9%
mean relative change (%) from baseline to Endpoint in serum ALP ([2]; elafibranor 80 mg daily oral): −48.3%
mean relative change (%) from baseline to Endpoint in serum ALP ([2]; elafibranor 120 mg daily oral): −40.6%
median absolute change from baseline to Endpoint in the pruritus/itching domain of PBC-40 ([3]; 80 mg): −1.0
median relative change from baseline to Endpoint in the pruritus/itching domain of PBC-40 ([3]; 80 mg): −25.0%
mean absolute change from baseline to Endpoint in the pruritus (itching) domain of PBC-40 ([3]; 80 mg): −0.9
median absolute change from baseline to Endpoint in the pruritus/itching domain of PBC-40 ([3]; 120 mg): −1.0
median relative change from baseline to Endpoint in the pruritus/itching domain of PBC-40 ([3]; 120 mg): −20.8%
mean absolute change from baseline to Endpoint in the pruritus (itching) domain of PBC-40 ([3]; 120 mg): −4.1
median pruritus VAS from baseline through Week 12 (trend) [4, 6]: declining median VAS as early as Week 2
median relative change from baseline to Endpoint in the pruritus VAS ([4]; 80 mg): −23.7%
median relative change from baseline to Endpoint in the pruritus VAS ([4]; 120 mg): −49.5%
safety and tolerability in patients ([5]; 80 mg and 120 mg): safe and well-tolerated
worsening of pruritus ([5]; 80 mg and 120 mg): no worsening of pruritus
percentage of subjects reporting TEAEs (Treatment-Emergent Adverse Events) ([5]; 80 mg): 80.0%
percentage of subjects reporting TEAEs (Treatment-Emergent Adverse Events) ([5]; 120 mg): 86.7%
